Format in all cases: biochemical
Assay [1] deals with EGFR WT (Homo sapiens (Human), UniProt P00533). Description: HotSpot radiometric kinase assay (Reaction Biology), EGFR WT. Conditions: 10 μM ATP. The method in brief:
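IC50 values derive from curve fits of 33P incorporation measured by P81 filter binding. ATP was 10 μM final; incubation lasted 120 min at room temperature after ~20 min compound preincubation.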

Assay [2] addresses EGFR (D770_N771insNPG) (Homo sapiens (Human), UniProt P00533, INS770NPG). Put plainly: HotSpot radiometric kinase assay, EGFR (D770_N771insNPG). Conditions: 10 μM ATP, read-out: EGFR (Δ770_N771insNPG) IC50. In short, it runs like this: (§1)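 Compounds were preincubated ~20 min with kinase/substrate in pH 7.5 Hepes buffer (MgCl2, EGTA, Brij35, BSA, Na3VO4, DTT, 1% DMSO), then ATP plus 33P-ATP was added to 10 μM final. After 120 min at room temperature, reactions were spotted on P81 filters and washed; IC50 values came from curve fits.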

Assay [3] concerns the target EGFR Δ746-750 mutant (Homo sapiens (Human), UniProt P00533, DEL746-750). Description: HotSpot radiometric kinase assay, EGFR Δ746-750 mutant. The conditions noted are these: 10 μM ATP. The method in brief:
as §1

Assay [4] has as its target EGFR Δ746-750/C797S mutant (Homo sapiens (Human), UniProt P00533, C797S/DEL746-750). Description: HotSpot radiometric kinase assay, EGFR Δ746-750/C797S mutant. The conditions noted are these: 10 μM ATP. The method in brief: as §1
Assay [5] has as its target EGFR L858R mutant (Homo sapiens (Human), UniProt P00533, L858R). Put plainly: HotSpot radiometric kinase assay, EGFR L858R mutant. The conditions noted are these: 10 μM ATP. In short, it runs like this: as §1
In assay [6] the target is EGFR L858R/T790M mutant (Homo sapiens (Human), UniProt P00533, L858R/T790M). Put plainly: HotSpot radiometric kinase assay, EGFR L858R/T790M mutant. The conditions noted are these: 10 μM ATP. The method in brief: as §1
Assay [7] has as its target EGFR L858R/T790M/C797S mutant (Homo sapiens (Human), UniProt P00533, C797S/L858R/T790M). Put plainly: HotSpot radiometric kinase assay, EGFR L858R/T790M/C797S mutant. The conditions noted are these: 10 μM ATP. The method in brief:
as §1

In assay [8] the target is CLK1 (Homo sapiens (Human), UniProt P49759). Description: Inhibition of CLK1 kinase activity evaluated at Nanosyn (ADP-Glo). The conditions noted are these: ADP-Glo luminescence. In short, it runs like this:
(§2)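 Kinase and substrate in pH 7.5 HEPES buffer (5 mM MgCl2, 0.01% Triton X-100, 0.1% BSA) with compound at 1% DMSO; reaction started with ATP, incubated for an assay-specific time. ADP formed detected by ADP-Glo luminescence; %-inhibition versus DMSO and no-enzyme controls.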
(In general: ADP-Glo turns the ADP formed in a reaction into a luminescent signal.)

Assay [9] deals with CLK2 (Homo sapiens (Human), UniProt P49760). Put plainly: Inhibition of CLK2 kinase activity evaluated at Nanosyn (ADP-Glo). The conditions noted are these: ADP-Glo luminescence. The method in brief:
as §2

Assay [10] addresses CLK3 (Homo sapiens (Human), UniProt P49761). Put plainly: Inhibition of CLK3 kinase activity evaluated at Nanosyn (ADP-Glo). The conditions noted are these: ADP-Glo luminescence. The method in brief: as §2
Assay [11] has as its target CLK4 (Homo sapiens (Human), UniProt Q9HAZ1). Put plainly: Inhibition of CLK4 kinase activity evaluated at Nanosyn (ADP-Glo). The conditions noted are these: ADP-Glo luminescence. In short, it runs like this: as §2

Here are results for ten molecules from patent US20250353864A1, “INDAZOLE CONTAINING MACROCYCLES AND THEIR USE” (BLOSSOMHILL THERAPEUTICS, INC., priority 2022, published 2025).

EGFR Δ746-750 mutant, sequence (P00533 other isoform, or with tags, fused parts or gaps del 1-668/del 746-750 limits assumed): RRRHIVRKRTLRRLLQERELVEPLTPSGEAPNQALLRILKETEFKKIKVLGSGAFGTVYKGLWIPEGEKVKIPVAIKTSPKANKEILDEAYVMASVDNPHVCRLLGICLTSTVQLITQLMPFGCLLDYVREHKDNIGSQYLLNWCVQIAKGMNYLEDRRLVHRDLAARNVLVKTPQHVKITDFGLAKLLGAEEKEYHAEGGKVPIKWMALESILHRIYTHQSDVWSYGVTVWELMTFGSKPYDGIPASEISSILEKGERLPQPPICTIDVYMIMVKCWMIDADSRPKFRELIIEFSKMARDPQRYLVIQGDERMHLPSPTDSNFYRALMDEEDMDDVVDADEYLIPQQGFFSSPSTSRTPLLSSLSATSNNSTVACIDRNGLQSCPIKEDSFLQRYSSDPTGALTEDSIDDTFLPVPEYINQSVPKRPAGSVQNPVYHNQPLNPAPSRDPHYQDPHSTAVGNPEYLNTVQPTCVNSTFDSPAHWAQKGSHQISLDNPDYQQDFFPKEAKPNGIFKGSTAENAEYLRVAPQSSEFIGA
EGFR WT, sequence (P00533 25-1210): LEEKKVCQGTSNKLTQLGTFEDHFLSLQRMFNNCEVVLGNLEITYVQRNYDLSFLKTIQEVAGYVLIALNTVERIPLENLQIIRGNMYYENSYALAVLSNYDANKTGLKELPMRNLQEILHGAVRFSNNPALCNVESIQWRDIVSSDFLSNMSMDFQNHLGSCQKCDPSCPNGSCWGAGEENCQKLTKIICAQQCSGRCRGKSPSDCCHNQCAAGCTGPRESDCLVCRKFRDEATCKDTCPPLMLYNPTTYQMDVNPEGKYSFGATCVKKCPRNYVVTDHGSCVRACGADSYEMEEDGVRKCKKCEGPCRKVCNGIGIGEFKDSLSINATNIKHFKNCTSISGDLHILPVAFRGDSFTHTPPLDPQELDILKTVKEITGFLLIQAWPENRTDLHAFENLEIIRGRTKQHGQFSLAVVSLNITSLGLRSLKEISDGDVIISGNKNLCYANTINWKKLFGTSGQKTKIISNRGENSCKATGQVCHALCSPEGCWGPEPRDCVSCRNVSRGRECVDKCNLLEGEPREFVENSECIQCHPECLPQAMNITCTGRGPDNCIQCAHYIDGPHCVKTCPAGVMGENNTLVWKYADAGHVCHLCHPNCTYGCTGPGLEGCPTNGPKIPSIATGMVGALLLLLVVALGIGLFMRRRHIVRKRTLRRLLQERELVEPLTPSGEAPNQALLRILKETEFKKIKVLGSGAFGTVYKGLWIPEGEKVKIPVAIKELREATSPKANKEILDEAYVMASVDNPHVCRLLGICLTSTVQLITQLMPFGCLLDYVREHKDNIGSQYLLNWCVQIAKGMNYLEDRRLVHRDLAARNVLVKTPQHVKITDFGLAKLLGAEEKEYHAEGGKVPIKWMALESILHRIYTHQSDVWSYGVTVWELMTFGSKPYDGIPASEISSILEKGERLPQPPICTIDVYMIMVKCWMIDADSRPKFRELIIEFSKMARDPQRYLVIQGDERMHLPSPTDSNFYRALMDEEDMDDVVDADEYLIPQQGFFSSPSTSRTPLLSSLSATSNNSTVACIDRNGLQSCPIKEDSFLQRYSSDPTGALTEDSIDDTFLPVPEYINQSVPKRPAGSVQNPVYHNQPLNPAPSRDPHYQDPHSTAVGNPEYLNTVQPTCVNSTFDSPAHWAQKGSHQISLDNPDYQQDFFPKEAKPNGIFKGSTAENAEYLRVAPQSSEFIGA
EGFR (D770_N771insNPG), sequence (P00533 other isoform, or with tags, fused parts or gaps del 1-668/ins NPG behind 770 limits assumed): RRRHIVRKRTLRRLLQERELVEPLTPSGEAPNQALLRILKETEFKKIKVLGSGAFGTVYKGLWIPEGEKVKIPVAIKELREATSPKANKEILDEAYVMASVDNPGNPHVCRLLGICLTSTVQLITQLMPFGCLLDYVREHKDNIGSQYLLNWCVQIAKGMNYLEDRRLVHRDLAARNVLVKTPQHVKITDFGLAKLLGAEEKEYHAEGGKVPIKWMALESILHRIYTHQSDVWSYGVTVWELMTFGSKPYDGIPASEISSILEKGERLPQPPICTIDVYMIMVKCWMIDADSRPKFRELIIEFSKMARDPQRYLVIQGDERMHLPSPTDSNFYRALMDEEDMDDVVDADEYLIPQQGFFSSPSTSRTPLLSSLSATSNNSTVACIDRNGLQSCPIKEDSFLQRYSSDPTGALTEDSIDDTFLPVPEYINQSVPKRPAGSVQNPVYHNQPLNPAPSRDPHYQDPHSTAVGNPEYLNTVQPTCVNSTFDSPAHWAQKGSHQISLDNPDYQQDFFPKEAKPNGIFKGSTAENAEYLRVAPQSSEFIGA
EGFR Δ746-750/C797S mutant, sequence (P00533 other isoform, or with tags, fused parts or gaps C797S/del 1-668/del 746-750 limits assumed): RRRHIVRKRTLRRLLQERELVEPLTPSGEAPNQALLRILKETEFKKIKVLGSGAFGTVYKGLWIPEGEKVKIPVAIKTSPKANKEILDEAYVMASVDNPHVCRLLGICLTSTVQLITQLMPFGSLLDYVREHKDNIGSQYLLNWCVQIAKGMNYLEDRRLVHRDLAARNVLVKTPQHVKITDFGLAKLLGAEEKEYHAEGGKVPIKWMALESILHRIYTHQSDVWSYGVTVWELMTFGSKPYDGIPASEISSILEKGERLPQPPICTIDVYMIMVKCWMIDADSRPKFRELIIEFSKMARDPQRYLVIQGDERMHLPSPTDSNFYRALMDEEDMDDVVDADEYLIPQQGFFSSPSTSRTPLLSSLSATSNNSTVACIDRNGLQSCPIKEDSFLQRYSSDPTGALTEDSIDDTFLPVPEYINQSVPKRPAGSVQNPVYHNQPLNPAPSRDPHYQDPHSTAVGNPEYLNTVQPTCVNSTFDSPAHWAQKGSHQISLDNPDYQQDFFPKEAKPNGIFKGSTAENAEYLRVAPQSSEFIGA
CLK3, sequence (P49761 whole entry): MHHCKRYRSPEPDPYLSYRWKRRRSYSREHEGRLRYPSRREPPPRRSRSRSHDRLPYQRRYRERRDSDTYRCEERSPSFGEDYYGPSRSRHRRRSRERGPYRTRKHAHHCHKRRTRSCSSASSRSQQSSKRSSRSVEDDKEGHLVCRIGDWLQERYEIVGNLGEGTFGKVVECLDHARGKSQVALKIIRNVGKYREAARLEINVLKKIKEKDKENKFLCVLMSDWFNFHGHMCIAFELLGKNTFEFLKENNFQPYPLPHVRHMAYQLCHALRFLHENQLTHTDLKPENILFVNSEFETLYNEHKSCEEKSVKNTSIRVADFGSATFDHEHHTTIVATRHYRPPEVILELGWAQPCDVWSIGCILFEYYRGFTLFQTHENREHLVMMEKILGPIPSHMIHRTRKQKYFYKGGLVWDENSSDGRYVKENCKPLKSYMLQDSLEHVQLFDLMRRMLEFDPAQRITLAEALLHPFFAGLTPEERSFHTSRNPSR
EGFR L858R/T790M/C797S mutant, sequence (P00533 25-1210 T790M/C797S/L858R): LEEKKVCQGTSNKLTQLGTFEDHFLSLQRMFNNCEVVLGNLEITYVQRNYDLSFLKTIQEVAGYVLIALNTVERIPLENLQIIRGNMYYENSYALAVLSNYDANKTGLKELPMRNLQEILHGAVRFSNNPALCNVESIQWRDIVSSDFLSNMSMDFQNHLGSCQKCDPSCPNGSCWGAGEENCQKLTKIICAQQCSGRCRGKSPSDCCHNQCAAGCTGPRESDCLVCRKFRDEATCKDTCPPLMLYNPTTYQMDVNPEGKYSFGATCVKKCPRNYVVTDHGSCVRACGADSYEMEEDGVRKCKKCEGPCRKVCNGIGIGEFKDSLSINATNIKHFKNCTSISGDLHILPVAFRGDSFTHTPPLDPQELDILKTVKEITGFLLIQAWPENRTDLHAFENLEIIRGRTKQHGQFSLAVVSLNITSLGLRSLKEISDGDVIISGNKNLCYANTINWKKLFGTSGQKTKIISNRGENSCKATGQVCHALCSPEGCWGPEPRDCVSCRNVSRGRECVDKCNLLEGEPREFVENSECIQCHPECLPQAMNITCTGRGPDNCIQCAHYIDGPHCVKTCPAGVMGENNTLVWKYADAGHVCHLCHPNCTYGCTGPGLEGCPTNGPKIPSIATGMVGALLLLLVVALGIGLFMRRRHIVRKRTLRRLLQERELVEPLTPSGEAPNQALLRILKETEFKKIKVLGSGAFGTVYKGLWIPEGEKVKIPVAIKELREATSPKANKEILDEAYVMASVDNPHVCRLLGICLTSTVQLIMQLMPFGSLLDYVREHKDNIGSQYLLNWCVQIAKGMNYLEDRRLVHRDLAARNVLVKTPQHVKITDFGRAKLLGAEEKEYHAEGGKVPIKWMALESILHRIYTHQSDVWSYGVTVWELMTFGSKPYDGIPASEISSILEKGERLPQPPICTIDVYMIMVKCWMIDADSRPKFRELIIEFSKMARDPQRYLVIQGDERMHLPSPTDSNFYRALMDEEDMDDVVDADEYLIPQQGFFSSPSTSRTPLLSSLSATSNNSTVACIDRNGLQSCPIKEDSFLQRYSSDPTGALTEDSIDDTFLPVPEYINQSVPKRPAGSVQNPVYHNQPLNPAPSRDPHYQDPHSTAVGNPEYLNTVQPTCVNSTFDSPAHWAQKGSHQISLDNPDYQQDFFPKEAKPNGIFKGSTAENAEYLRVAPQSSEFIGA
CLK2, sequence (P49760 whole entry): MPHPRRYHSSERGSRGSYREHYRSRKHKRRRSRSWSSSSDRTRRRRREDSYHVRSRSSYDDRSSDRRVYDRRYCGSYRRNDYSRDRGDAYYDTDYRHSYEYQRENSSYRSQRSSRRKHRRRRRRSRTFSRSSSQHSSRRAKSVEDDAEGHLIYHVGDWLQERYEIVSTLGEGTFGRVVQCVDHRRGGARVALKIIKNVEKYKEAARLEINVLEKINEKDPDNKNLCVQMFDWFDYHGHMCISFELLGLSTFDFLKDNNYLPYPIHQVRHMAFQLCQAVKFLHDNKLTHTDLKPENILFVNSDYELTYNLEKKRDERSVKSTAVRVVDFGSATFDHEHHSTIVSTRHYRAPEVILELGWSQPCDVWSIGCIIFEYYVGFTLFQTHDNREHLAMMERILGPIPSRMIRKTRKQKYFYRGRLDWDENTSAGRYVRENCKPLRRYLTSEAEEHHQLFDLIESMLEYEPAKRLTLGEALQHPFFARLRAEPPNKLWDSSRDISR

For `CCOc1nn(CCO)c2c1/C=C/c1n[nH]c3ccc(cc13)-c1cnn(C)c1O[C@@H](C)CN(CC)C2` [Example 177, 2-[(10S,17E)-16-ethoxy-12-ethyl-8,10-dimethyl-2,8,10,11,12,13-hexahydro-14H-3,5-ethenotripyrazolo[3,4-f:3′,4′-j:4″,3″-n][1,4]oxazacyclopentadecin-14-yl]ethan-1-ol], the IC50 (commonly the concentration at which inhibition is half-maximal) was determined as 0.67 nM in [1]; 1.56 nM in [2]; 0.56 nM in assay [3]; 0.75 nM in assay [4]; 0.38 nM in assay [5]; 0.6 nM in assay [6]. The IC50 in [7] turned out to be 1.78 nM; in assay [8] it was 0.47 nM; in assay [9], 0.23 nM; in assay [10] it was 59.1 nM; in [11], 1.08 nM.

Take `CCOc1nn(CCO)c2c1/C=C/c1n[nH]c3ccc(cc13)-c1cnn(C)c1OC[C@H](CC)N(C)C2` [Example 259, 2-[(11S,17E)-16-ethoxy-11-ethyl-8,12-dimethyl-2,8,10,11,12,13-hexahydro-14H-3,5-ethenotripyrazolo[3,4-f:3′,4′-j:4″,3″-n][1,4]oxazacyclopentadecin-14-yl]ethan-1-ol]: the IC50 in [1] turned out to be 329 nM; in [2] it was 500 nM; in assay [3], 40.1 nM; in assay [4] it was 22.9 nM; in assay [5] it was 66.5 nM; in assay [6] it was 9.39 nM. In addition, the IC50 is 21.8 nM in assay [7]; 0.9 nM in assay [8]; 4.29 nM in assay [9]; 1000 nM in [10]; 1.3 nM in assay [11].

On to `CCN1Cc2nn(C)c(C)c2/C=C/c2n[nH]c3ccc(cc23)-c2cnn(C)c2O[C@@H](C)C1` [Example 59, (10S,17E)-12-ethyl-8,10,15,16-tetramethyl-2,10,11,12,13,15-hexahydro-8H-3,5-ethenotripyrazolo[3,4-f:3′,4′-j:4″,3″-n][1,4]oxazacyclopentadecine], for which the half-maximal inhibitory concentration (IC50) in [1] amounted to 44.1 nM; in assay [2], 127 nM; in assay [3], 18.6 nM; in [4], 2.42 nM; in assay [5] it was 7.63 nM; in assay [6] it was 0.7 nM. The IC50 in assay [7] was 1.02 nM; in [8], 0.82 nM; in [9], 2.13 nM; in [10] it was 541 nM; in assay [11], 2.03 nM.

`Cn1ncc2c1OCCN1CC[C@@H](Oc3ccc(F)cc3/C=C/c3n[nH]c4ccc-2cc34)C1=O` [Example 132, (10R,16E)-14-fluoro-3-methyl-3,5,6,9,10,19-hexahydro-8H-20,22-etheno-7,10-methanodipyrazolo[3,4-i:4′,3′-m][1,8,5]benzodioxazacyclooctadecin-25-one]: the IC50 in [1] worked out at 721 nM; in [2] it was 284 nM; in [3], 39.4 nM; in assay [4], 67 nM; in [5], 157 nM; in assay [6], 20.1 nM. The IC50 was 35.3 nM in [7]; 0.19 nM in [8]; 0.02 nM in assay [9]; 0.28 nM in assay [10]; 0.3 nM in assay [11].

`Cc1nn(C)c2c1/C=C/c1n[nH]c3ccc(cc13)-c1cnn(C)c1OCCN1CC[C@@H](O2)C1=O` [Example 109, (10R,15E)-3,12,14-trimethyl-5,6,9,10,12,18-hexahydro-3H,8H-19,21-etheno-7,10-methanotripyrazolo[3,4-i:3′,4′-m:4″,3″-q][1,8,4]dioxazacyclooctadecin-24-one]: the IC50 in assay [1] was 856 nM; in [2], 298 nM; in [3], 38 nM; in [4], 152 nM; in assay [5] it was 165 nM; in assay [6], 15.9 nM. Moreover, the IC50 in assay [7] was 47.1 nM; in [8] it was 0.46 nM; in [9], 0.09 nM; in assay [10] it was 2 nM; in assay [11], 0.85 nM.

For the molecule `CCOc1nccc2c1/C=C/c1n[nH]c3ccc(cc13)-c1cnn(C)c1O[C@@H](C)CN(C)C2` [Example 240, (10S,18E)-17-ethoxy-8,10,12-trimethyl-2,8,10,11,12,13-hexahydro-3,5-ethenodipyrazolo[3,4-j:4′,3′-n]pyrido[4,3-f][1,4]oxazacyclopentadecine], the 50% inhibitory concentration (IC50) in [1] is greater than 1000 nM; in [2], greater than 1000 nM; in assay [3] it was 826 nM; in assay [4] it was 653 nM; in [5] it was 775 nM; in assay [6], 5.92 nM. The IC50 amounted to 10.5 nM in assay [7]; 1.12 nM in [8]; 12.5 nM in assay [9]; 1000 nM in assay [10]; 1.52 nM in [11].

Turning to `CCN1Cc2c(c(OC(C)C)nn2CC(C)=O)/C=C/c2n[nH]c3ccc(cc23)-c2cnn(C)c2O[C@@H](C)C1` [Example 263, 1-{(10S,17E)-12-ethyl-8,10-dimethyl-16-[(propan-2-yl)oxy]-2,8,10,11.12,13-hexahydro-14H-3,5-ethenotripyrazolo[3,4-f:3′,4′-j:4″,3″-n][1,4]oxazacyclopentadecin-14-yl}propan-2-one], the IC50 in assay [1] came to 6.94 nM; in [2], 18.2 nM; in [3] it was 1.28 nM; in assay [4], 1.79 nM; in assay [5], 3.97 nM; in assay [6] it was 0.75 nM. Besides, the IC50 in [7] worked out at 0.5 nM; in assay [8], 0.64 nM; in assay [9] it was 0.71 nM; in [10], 32.7 nM; in [11], 1.31 nM.

For the molecule `Cc1c2c(nn1C[C@H](C)O)CN(C)C[C@H](C)Oc1c(cnn1C)-c1ccc3[nH]nc(c3c1)/C=C/2` [Example 124, (2S)-1-[(10S,17E)-8,10,12,16-tetramethyl-2,8,10,11,12,13-hexahydro-15H-3,5-ethenotripyrazolo[3,4-f:3′,4′-j:4″,3″-n][1,4]oxazacyclopentadecin-15-yl]propan-2-ol], the IC50 in assay [1] was found to be 168 nM; in assay [2], 140 nM; in assay [3], 18.3 nM; in assay [4], 13.9 nM; in assay [5], 18.3 nM; in assay [6], 3.32 nM. The IC50 in assay [7] stood at 2.32 nM; in assay [8], 0.15 nM; in [9] it was 0.29 nM; in [10] it was 186 nM; in assay [11], 0.37 nM.

Turning to `CC(C)Oc1nn(CCO)c2c1/C=C/c1n[nH]c3ccc(cc13)-c1cnn(C)c1O[C@@H](C)C(=O)N(C)C2` [Example 220, (10S,17E)-14-(2-hydroxyethyl)-8,10,12-trimethyl-16-[(propan-2-yl)oxy]-2,12,13,14-tetrahydro-8H-3,5-ethenotripyrazolo[3,4-f:3′,4′-j:4″,3″- n][1,4]oxazacyclopentadecin-11(10H)-one], the IC50 in assay [1] amounted to 1440 nM; in assay [2], 575 nM; in assay [3], 398 nM; in assay [4], 475 nM; in [5] it was 515 nM; in assay [6], 23.1 nM. Besides, the IC50 turned out to be 27.5 nM in [7]; 2.76 nM in assay [8]; 8.84 nM in assay [9]; 1 nM in [10]; 4.31 nM in assay [11].

`CCN1Cc2c(c(C)nn2C)/C=C/c2n[nH]c3ccc(cc23)-c2cnn(C)c2O[C@@H](C)C1` [Example 165, (10S,17E)-12-ethyl-8,10,14,16-tetramethyl-2,10,11,12,13,14-hexahydro-8H-3,5-ethenotripyrazolo[3,4-f:3′,4′-j:4″,3″-n][1,4]oxazacyclopentadecine]: the IC50 was 28.5 nM in assay [1]; 19 nM in assay [2]; 4.84 nM in assay [3]; 2.33 nM in assay [4]; 6.08 nM in assay [5]; 0.47 nM in assay [6]. Also, the 50% inhibitory concentration (IC50) in assay [7] was determined as 0.44 nM; in assay [8], 0.1 nM; in assay [9], 0.02 nM; in [10], 72.4 nM; in [11], 0.19 nM.
